Assay results published in patent US9416128B2, “Fused heterocyclic compounds as ion channel modulators” (Gilead Sciences, Inc., priority 2013, dated 2016).
Like-named read-outs stand apart in the source and are kept apart here.

Experiments:
[1] = molecular target: wild-type human cardiac sodium channel, hNaV 1.5 (Peak INa) (Homo sapiens, UniProt Q14524); assay: Peak INa screening assay (tonic block and use-dependent block); format: cell-based
Procedure: The assay uses an HEK293 (human embryonic kidney) cell line heterologously expressing the wild-type human cardiac sodium channel, hNaV 1.5, purchased from Millipore (Billerica, Mass.). No beta subunits were coexpressed with the Na channel alpha subunit. Cells are maintained with standard tissue culture procedures and stable channel expression is maintained with 400 μg/mL Geneticin in the culture medium. […] Currents are digitized at 25 kHz and low-pass filtered at 5 kHz and stored in the Sophion Bioscience Oracle database (Sophion Bioscience, Copenhagen, Denmark). Analysis is performed using QPatch Assay software and data are compiled in Excel 2010 (Microsoft, Seattle, Wash., U.S.A.). Compound stocks are routinely made by the Gilead Sample Bank in vials to 10 mM in dimethyl sulfoxide (DMSO). In some cases, when compounds are not soluble in DMSO, they are made in 100% ethanol. Stocks are sonicated as necessary. The extracellular solution for screening Late INa is composed of: 140 mM NaCl, 4 mM KCl, 1.8 mM CaCl2, 1 mM MgCl2, 10 mM HEPES and 10 mM Dextrose with pH adjusted to 7.35 using NaOH. The intracellular solution contains: 105 mM CsF, 20 mM CsCl, 10 NaF, 2 mM EGTA, 10 mM HEPES and 10 mM Dextrose with pH adjusted to 7.35 with CsOH. Compounds are diluted in extracellular solution using a MicroLab Nimbus (Hamilton Robotics, Reno, Nev.) to between 0.3 and 3 μM in glass vials and transferred to glass well plates before robotic addition to the cells. […] It is contemplated that the compounds of Formula I avoid significant block of peak INa. […] The intracellular solution used for the Peak INa assay is the same as outlined for the Late INa assay (see above). After establishing the whole cell recording configuration, channels were stimulated to open with low frequency (0.1 Hz) for so that the recording can be monitored and the extent to which the recording has stabilized can be assessed. The test compound is then applied at 1 or 3 μM was added 2 times at 60 second intervals. After the second compound addition, a 200 second wait period was imposed to allow for equilibration. Voltage protocols for TB and UDB are were performed in the absence and presence of compound and TB and UDB are calculated with respect to the compound free condition. Both TB and UDB were analyzed by incorporating rundown correction for the peak INa.

hNaV1.1 (SCN1A) = hNaV1.1 (SCN1A) (Homo sapiens, UniProt P35498); assay: Use-dependent inhibition of the CNS NaV1.1 sodium channel; format: cell-based; settings: % inhibition; for inhibition at 1 µM / inhibition at 10 µM: 25 Hz; for inhibition at 1 µM: read-out: Nav1.1 UDB 25 Hz 1 uM; for inhibition at 10 µM: read-out: Nav1.1 UDB 25 Hz 10 uM
Procedure: HEK-293 cells stably expressing wild-type (WT) hNaV1.1 (SCN1A, NCBI# AB09354) were obtained from Millipore (Cat. # CYL3009) were used to record INa. Cells are maintained with standard tissue culture procedures and stable channel expression is maintained with 400 ug/mL G418 in the culture medium. Unless otherwise noted, all reagents are purchased from Sigma-Aldrich (St Louis, Mo., U.S.A.).
Assays measuring Use-Dependent Block (UDB) of NaV1.2 are performed on an automated electrophysiology platform, QPatch 16X or QPatch HT (Sophion Bioscience, Copenhagen, Denmark), using the whole cell patch clamp technique to measure currents through the cell membrane. Series resistance compensation is set to 100% and series resistance and whole-cell compensation are performed automatically. Currents stored in the Sophion Bioscience Oracle database (Sophion Bioscience, Copenhagen, Denmark). Analysis is performed using QPatch Assay software and data are compiled in Excel 2010 (Microsoft, Seattle, Wash., U.S.A.).
The internal (pipette) solution consists of (in mM) 105 CsF, 10 NaF, 20 CsCl, 2 EGTA, 10 HEPES, 10 Dextrose with a pH of 7.35 and osmolarity of 300 mOsmol/kg. The external (bath) solution contains in (mM): 145 NaCl, 4 KCl, 1.8 CaCl2, 1 MgCl2, 10 dextrose, 10 HEPES, with a pH of 7.35 and osmolarity of 310 mOsmol/kg. Experiments are carried out at 23-25° C.
Compound stocks are routinely made by the Gilead Sample Bank in vials to 10 mM in dimethyl sulfoxide (DMSO). In some cases, when compounds are not soluble in DMSO, they are made in 100% ethanol. Stocks are sonicated as necessary. […]
Cells are allowed to stabilize for 10 min after establishment of the whole-cell configuration before current is measured. The test compound is applied 2 times at 60 second intervals. After the second compound addition, a 200 second wait period was imposed to allow for equilibration.
Leak currents are subtracted by using an online P/4 procedure and all currents are low-pass Bessel filtered at 5 kHz and digitized at […].
Use-dependent block of NaV1.2 peak current is measured during pulse number 20 of a voltage pulse train (0 mV, 20 ms, 20 pulses, 25 Hz) from a holding potential of −120 mV. Currents are normalized to the peak current recorded in response to the first pulse in each frequency train. The voltage protocol for UDB was performed in the absence and presence of compound and percentage inhibition was calculated with respect to the compound free condition. Results are presented as mean percentage inhibition and data analysis is performed using QPatch Assay Software 4.0, and Excel 2002 (Microsoft, Seattle, Wash., U.S.A.).

[2] = % inhibition, use-dependent block of peak INa at 3 uM, 3 Hz, pulse 50, read-out: Nav1.5 Peak UDB 3 Hz 3 uM
[3] = read-out: Nav1.5 Peak TB 3 uM, % inhibition, tonic block of peak INa at 3 uM, 0.1 Hz, holding -100 mV

Chain of wild-type human cardiac sodium channel, hNaV 1.5 (Peak INa) (Q14524 whole entry): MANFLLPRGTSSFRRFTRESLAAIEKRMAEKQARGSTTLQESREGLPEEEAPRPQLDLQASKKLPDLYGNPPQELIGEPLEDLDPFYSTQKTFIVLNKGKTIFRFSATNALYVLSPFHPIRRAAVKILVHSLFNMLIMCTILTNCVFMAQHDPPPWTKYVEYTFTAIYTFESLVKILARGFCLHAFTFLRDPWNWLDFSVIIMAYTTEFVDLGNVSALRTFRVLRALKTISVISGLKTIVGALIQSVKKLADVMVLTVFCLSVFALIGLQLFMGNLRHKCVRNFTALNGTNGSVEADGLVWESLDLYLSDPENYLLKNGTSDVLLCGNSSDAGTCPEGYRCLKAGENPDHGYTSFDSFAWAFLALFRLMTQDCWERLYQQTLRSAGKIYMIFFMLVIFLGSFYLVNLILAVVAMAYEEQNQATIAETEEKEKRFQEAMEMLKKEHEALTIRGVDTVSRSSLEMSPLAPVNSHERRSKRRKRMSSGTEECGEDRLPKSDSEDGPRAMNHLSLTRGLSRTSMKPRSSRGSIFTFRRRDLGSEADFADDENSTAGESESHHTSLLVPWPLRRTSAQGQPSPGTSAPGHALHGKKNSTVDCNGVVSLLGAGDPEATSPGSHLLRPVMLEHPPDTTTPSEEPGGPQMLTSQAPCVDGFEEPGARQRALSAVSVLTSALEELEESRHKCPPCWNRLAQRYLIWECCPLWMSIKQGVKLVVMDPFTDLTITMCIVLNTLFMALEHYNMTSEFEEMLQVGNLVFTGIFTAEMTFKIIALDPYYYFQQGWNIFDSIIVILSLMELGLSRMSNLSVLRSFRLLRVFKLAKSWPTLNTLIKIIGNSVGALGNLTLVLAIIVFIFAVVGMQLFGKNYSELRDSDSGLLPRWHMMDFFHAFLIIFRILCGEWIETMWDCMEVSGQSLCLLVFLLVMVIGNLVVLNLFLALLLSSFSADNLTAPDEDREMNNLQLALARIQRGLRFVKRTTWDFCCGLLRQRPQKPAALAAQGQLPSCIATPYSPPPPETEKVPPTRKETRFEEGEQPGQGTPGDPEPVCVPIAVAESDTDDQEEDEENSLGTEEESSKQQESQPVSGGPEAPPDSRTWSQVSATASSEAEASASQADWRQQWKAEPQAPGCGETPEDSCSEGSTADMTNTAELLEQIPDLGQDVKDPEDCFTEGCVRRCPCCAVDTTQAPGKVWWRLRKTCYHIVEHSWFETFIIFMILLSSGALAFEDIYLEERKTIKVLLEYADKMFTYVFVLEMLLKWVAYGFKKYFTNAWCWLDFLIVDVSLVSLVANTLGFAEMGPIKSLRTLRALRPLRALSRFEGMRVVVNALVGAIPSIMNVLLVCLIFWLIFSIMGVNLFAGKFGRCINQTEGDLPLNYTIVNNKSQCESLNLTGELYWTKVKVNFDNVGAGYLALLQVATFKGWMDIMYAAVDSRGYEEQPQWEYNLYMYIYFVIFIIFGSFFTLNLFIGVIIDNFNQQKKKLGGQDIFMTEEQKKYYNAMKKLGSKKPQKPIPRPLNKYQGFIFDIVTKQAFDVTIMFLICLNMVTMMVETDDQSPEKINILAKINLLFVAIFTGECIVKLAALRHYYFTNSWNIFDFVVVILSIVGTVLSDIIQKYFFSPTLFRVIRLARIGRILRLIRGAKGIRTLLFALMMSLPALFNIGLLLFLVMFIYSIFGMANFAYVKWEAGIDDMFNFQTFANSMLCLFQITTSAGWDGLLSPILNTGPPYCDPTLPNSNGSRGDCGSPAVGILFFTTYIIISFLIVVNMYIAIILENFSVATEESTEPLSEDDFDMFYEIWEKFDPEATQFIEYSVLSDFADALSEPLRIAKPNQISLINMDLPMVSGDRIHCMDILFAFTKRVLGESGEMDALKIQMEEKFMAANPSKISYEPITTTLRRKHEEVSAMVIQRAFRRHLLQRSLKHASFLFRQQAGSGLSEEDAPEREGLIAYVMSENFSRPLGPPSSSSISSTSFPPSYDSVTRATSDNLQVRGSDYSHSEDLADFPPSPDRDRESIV

Compound | inhibition at 3 µM [1, 2] | inhibition at 3 µM [1, 3] | Nav1.1 UDB 25 Hz 1 uM (hNaV1.1 (SCN1A); use-dependent block at 1 uM) | Nav1.1 UDB 25 Hz 10 uM (hNaV1.1 (SCN1A); use-dependent block at 10 uM) | inhibition at 1 µM (hNaV1.1 (SCN1A); use-dependent block at 1 uM) | inhibition at 10 µM (hNaV1.1 (SCN1A); use-dependent block at 10 uM) | Nav1.5 Peak TB 3 uM ([1]; % inhibition, tonic block of peak INa at 3 uM, 0.1 Hz, holding -100 mV) | Nav1.5 Peak UDB 3 Hz 3 uM ([1]; % inhibition, use-dependent block of peak INa at 3 uM, 3 Hz, pulse 50)
COc1cc(OC(F)(F)F)ccc1-c1ccc2c(c1)CN(Cc1ncccn1)C(=O)O2 [Example 1, 6-(2-methoxy-4-(trifluoromethoxy)phenyl)-3-(pyrimidin-2-ylmethyl)-3,4-dihydro-2H-benzo[e][1,3]oxazin-2-one] | 9.6% | 26.7% | <5% | 34.4% |  |  |  | 
O=C1Oc2ccc(-c3ccc(C(F)(F)F)cc3)cc2CN1Cc1ccncc1 [Example 2, 3-(pyridin-4-ylmethyl)-6-(4-(trifluoromethyl)phenyl)-3,4-dihydro-2H-benzo[e][1,3]oxazin-2-one] | 16.2% | 18.5% |  |  | 9.7% | 22.6% |  | 
Cc1cc(-c2ccc3c(c2)CN(Cc2ncccn2)C(=O)O3)ccc1OC(F)(F)F [Example 5, 6-(3-methyl-4-(trifluoromethoxy)phenyl)-3-(pyrimidin-2-ylmethyl)-3,4-dihydro-2H-benzo[e][1,3]oxazin-2-one] | < 5% | 10.1% |  |  | < 5% | 15.3% |  | 
O=C1Oc2ccc(-c3ccc(Cl)c(F)c3)cc2CN1Cc1ncccn1 [Example 6, 6-(4-chloro-3-fluorophenyl)-3-(pyrimidin-2-ylmethyl)-3,4-dihydro-2H-benzo[e][1,3]oxazin-2-one] | < 5% | 19.9% |  |  | 26.7% | 65.2% |  | 
O=C1Oc2ccc(-c3ccc(OC(F)(F)F)cc3F)cc2CN1Cc1ncccn1 [Example 7, 6-(2-fluoro-4-(trifluoromethoxy)phenyl)-3-(pyrimidin-2-ylmethyl)-3,4-dihydro-2H-benzo[e][1,3]oxazin-2-one] | < 5% | 14.9% |  |  | 5.7% | 42.4% |  | 
Cc1cc(OC(F)(F)F)ccc1-c1ccc2c(c1)CN(Cc1ncccn1)C(=O)O2 [Example 8, 6-(2-methyl-4-(trifluoromethoxy)phenyl)-3-(pyrimidin-2-ylmethyl)-3,4-dihydro-2H-benzo[e][1,3]oxazin-2-one] | < 5% | 12.5% |  |  | < 5% | 11.6% |  | 
COc1cc(OC(F)(F)F)ccc1-c1ccc2c(c1)CN(Cc1ncccn1)C(=O)O2 [Example 9, 6-(2-methoxy-4-(trifluoromethoxy)phenyl)-3-(pyrimidin-2-ylmethyl)-3,4-dihydro-2H-benzo[e][1,3]oxazin-2-one] |  |  |  |  | < 5% | 34.4% | 18.9% | <5%
O=C1Oc2ccc(-c3ccc(OC(F)(F)F)c(F)c3)cc2CN1Cc1ncccn1 [Example 10, 6-(3-fluoro-4-(trifluoromethoxy)phenyl)-3-(pyrimidin-2-ylmethyl)-3,4-dihydro-2H-benzo[e][1,3]oxazin-2-one] | 10.8% | 14.2% |  |  | 35% | 75.9% |  | 
CC1c2cc(-c3ccc(Cl)c(F)c3)ccc2OC(=O)N1Cc1ncccn1 (stereo not shown) [Example 11, 6-(4-chloro-3-fluorophenyl)-4-methyl-3-(pyrimidin-2-ylmethyl)-3,4-dihydro-2H-benzo[e][1,3]oxazin-2-one] | 5.6% | 19.4% |  |  | 21% | 81.1% |  | 
Cc1cnc(CN2Cc3cc(-c4ccc(OC(F)(F)F)cc4)ccc3OC2=O)nc1 [Example 12, 3-((5-methylpyrimidin-2-yl)methyl)-6-(4-(trifluoromethoxy)phenyl)-3,4-dihydro-2H-benzo[e][1,3]oxazin-2-one] | < 5% | 16.6% |  |  | 7.5% | 73.9% |  | 
Cc1cnc(CN2Cc3cc(-c4ccc(C(F)(F)F)cc4)ccc3OC2=O)nc1 [Example 13, 3-((5-methylpyrimidin-2-yl)methyl)-6-(4-(trifluoromethyl)phenyl)-3,4-dihydro-2H-benzo[e][1,3]oxazin-2-one] | 5.6% | 29.4% |  |  | 37.5% | 88.8% |  | 
Cc1cnc(CN2Cc3cc(-c4ccc(OC(F)(F)F)cc4F)ccc3OC2=O)nc1 [Example 14, 6-(2-fluoro-4-(trifluoromethoxy)phenyl)-3-((5-methylpyrimidin-2-yl)methyl)-3,4-dihydro-2H-benzo[e][1,3]oxazin-2-one] | < 5% | 24% |  |  | < 5% | 43.8% |  | 
O=C1Oc2ccc(-c3ccc(OC(F)(F)F)cc3)cc2CN1CCc1ncccn1 [Example 16, 3-(2-(pyrimidin-2-yl)ethyl)-6-(4-(trifluoromethoxy)phenyl)-3,4-dihydro-2H-benzo[e][1,3]oxazin-2-one] | 5.3% | 22.1% |  |  | 17.3% | 52.2% |  | 
O=C1Oc2ccc(-c3ccc(C(F)(F)F)cc3)cc2CN1CCc1ncccn1 [Example 17, 3-(2-(pyrimidin-2-yl)ethyl)-6-(4-(trifluoromethyl)phenyl)-3,4-dihydro-2H-benzo[e][1,3]oxazin-2-one] | < 5% | 12.9% |  |  | 34.8% | 60.9% |  | 
COc1cc(OC(F)(F)F)ccc1-c1ccc2c(c1)CN(CCc1ncccn1)C(=O)O2 [Example 18, 6-(2-methoxy-4-(trifluoromethoxy)phenyl)-3-(2-(pyrimidin-2-yl)ethyl)-3,4-dihydro-2H-benzo[e][1,3]oxazin-2-one] | < 5% | 12.1% |  |  | 16.9% | 73.4% |  | 
CCCOc1cc(C(F)(F)F)ccc1-c1ccc2c(c1)CN(CCc1ncccn1)C(=O)O2 [Example 19, 6-(2-propoxy-4-(trifluoromethyl)phenyl)-3-(2-(pyrimidin-2-yl)ethyl)-3,4-dihydro-2H-benzo[e][1,3]oxazin-2-one] | 9.6% | 26.7% |  |  | 30.8% | 78.4% |  | 
